Several values for one entry are separate records, joined by “and”; a condition that tells them apart may be missing. Equal values may be shown once.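 Dose response: 5 concentrations. Exposure: 48 h. Format: 96-well plates. Endpoint: linear interpolation; highest concentration if not reached. GI50 = concentration required for 50% inhibition of growth. The concentration for full growth arrest is given as TGI.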
What was measured:
Test in all cases: NCI-60 cell line screen, 48 h
[1] = test system: RXF 393 renal
[2] = test system: HCT-15 colon
[3] = test system: A498 renal
[4] = test system: NCI-H23 lung
[5] = test system: SF-295 CNS
[6] = test system: SW-620 colon
[7] = test system: SK-MEL-28 melanoma
[8] = test system: HOP-92 NSCLC
[9] = test system: HL-60(TB) leukemia
[10] = test system: MDA-N

Compound | TGI [1] | TGI [2] | TGI [3] | TGI [4] | TGI [5] | TGI [6] | TGI [7] | TGI [8] | TGI [9] | TGI [10] | GI50 [8] | GI50 [9] | GI50 [1] | GI50 [3] | GI50 [5] | GI50 [6]
COC(=O)/C(=N\N)C(C(=O)C(=O)Nc1nc(=S)[nH][nH]1)c1nc2ccc([N+](=O)[O-])cc2[nH]c1=O (centres undefined) | > 100 µM | > 100 µM | > 100 µM | > 100 µM | > 100 µM | > 100 µM | > 100 µM | > 100 µM | > 100 µM | – | – | – | – | – | – | –
C/C=C1/C(=Cc2[nH]c(C=c3[nH]/c(=C/C4=NC(=O)C(CC)=C4C)c(C)c3CCC(=O)O)c(CCC(=O)O)c2C)NC(=O)C1C (centres undefined) | > 50 µM | > 50 µM | – | > 50 µM | 18.5 µM | > 50 µM | > 50 µM | 15.9 µM | > 50 µM | – | – | – | – | – | – | –
Cc1ccc(O)c(C(c2cc(C)ccc2O)c2cc([N+](=O)[O-])ccc2O)c1 | 54 µM | 36.1 µM | 39.5 µM | 28.9 µM | 36.9 µM | 67 µM | 39.6 µM | 38.9 µM | 11.7 µM | – | – | – | – | – | – | –
COC(=O)C(=O)C(C(C)=O)C(=O)C(=O)Nc1ccc(C)cc1C (centres undefined) | > 100 µM | > 100 µM | > 100 µM | > 100 µM | > 100 µM | > 100 µM | > 100 µM | > 100 µM | > 100 µM | – | – | – | – | – | – | –
C/C(=N/N)c1sc(-c2nc(C)c(/C(C)=N\N)s2)nc1C | > 100 µM | > 60.8 µM | > 100 µM | > 100 µM | > 100 µM | > 100 µM | > 100 µM | > 100 µM | > 69.3 µM | – | – | – | – | – | – | –
COc1ccc(NC(/C(C(=O)C(=O)/C=C(\O)c2ccccc2)=C(\O)c2ccccc2)c2ccc(OC)cc2)cc1 (centres undefined) | > 100 µM | > 100 µM | > 100 µM | > 100 µM | > 100 µM | – | > 100 µM | 75.8 µM | 75.3 µM | – | – | – | – | – | – | –
O=S(=O)(CF)OCCCCOS(=O)(=O)CF | – | > 100 µM | > 100 µM | > 100 µM | > 100 µM | > 100 µM | > 100 µM | 82.6 µM | > 100 µM | – | – | – | – | – | – | –
COc1cc2c(cc1O)C(=O)O[C@@H]1CC=C3CCN(C)[C@H]3[C@H]21 | > 25 µM | > 25 µM | > 25 µM | > 25 µM | > 25 µM | > 25 µM | > 25 µM | – | – | > 25 µM | – | – | – | – | – | –
COC1(C)CNCC(C)(C)NC(=O)C(C)(OC)CNCC(C)(C)NC1=O (centres undefined) | > 100 µM | > 100 µM | > 100 µM | > 100 µM | > 100 µM | > 100 µM | > 100 µM | > 100 µM | > 100 µM | – | – | – | – | – | – | –
CCCCCC(/C=C/c1ncccc1OCCCCCC(=O)O)=N\NC1=NCCN1 | > 100 µM | > 100 µM | – | – | > 100 µM | > 100 µM | > 100 µM | > 100 µM | > 100 µM | – | – | – | – | – | – | –
CCOC(=O)c1ccn2c(c1)c(C#N)c1nc3ccccc3nc12 | – | > 100 µM | > 100 µM | > 100 µM | – | > 100 µM | > 100 µM | – | > 100 µM | – | – | – | – | – | – | –
N#CCCN(CCC#N)c1ccc(/C=C(/NC(=O)Nc2ccccc2Cl)NC(=O)c2cc([N+](=O)[O-])ccc2Cl)cc1 | > 100 µM | > 100 µM | – | – | > 100 µM | > 100 µM | > 100 µM | > 100 µM | – | – | – | – | – | – | – | –
O=C1C2C3C=C4c5ccccc5N(c5ccccc5)C4([C@@H]2C(=O)N1c1ccc(F)cc1)[C@H]1C(=O)N(c2ccc(F)cc2)C(=O)[C@@H]31 (some centres undefined) | > 100 µM | > 100 µM | – | > 100 µM | > 100 µM | > 100 µM | > 100 µM | > 100 µM | > 100 µM | – | – | – | – | – | – | –
CCCCCCCCCCCCCCCCCCOCC(O)CO (centres undefined) | > 24.1 µM | > 25 µM | > 3.96 µM | > 25 µM | > 25 µM | > 17 µM | > 25 µM | 24.7 µM | > 21.4 µM | – | – | – | – | – | – | –
Cc1cc(C)c(C(=O)C(C)C(c2ccccc2)c2ccc(Cl)cc2)c(C)c1 (centres undefined) | > 100 µM | > 100 µM | – | > 100 µM | > 100 µM | > 100 µM | > 100 µM | > 100 µM | > 100 µM | – | 47.4 µM and > 100 µM | > 100 µM and 39.6 µM | – | – | – | –
COc1cc2cnc3c4cc(OC)c(OC(C)C)cc4ccc3c2cc1OC | > 100 µM | > 100 µM | – | > 100 µM | > 100 µM | > 100 µM | > 100 µM | > 100 µM | > 100 µM | – | – | – | – | – | – | –
COc1cc(/C=N/n2c(C)n[nH]c2=O)cc(OC)c1OC | > 100 µM | > 100 µM | > 100 µM | > 100 µM | > 100 µM | > 100 µM | > 100 µM | – | – | > 100 µM | – | – | – | – | – | –
CCc1cccc(NC(=O)c2cc(/C=C/c3ccccc3)[nH]c(=S)n2)c1 | > 100 µM | > 100 µM | > 100 µM | > 100 µM | > 100 µM | > 100 µM | > 100 µM | > 100 µM | > 100 µM | – | – | – | – | – | – | –

Compound | TGI [1] | TGI [2] | TGI [3] | TGI [4] | TGI [5] | TGI [6] | TGI [7] | TGI [8] | TGI [9] | TGI [10] | GI50 [8] | GI50 [9] | GI50 [1] | GI50 [3] | GI50 [5] | GI50 [6]
CC(C)=CCOc1ccc(-c2coc3cc4c(c(O)c3c2=O)C=CC(C)(C)O4)cc1 | > 100 µM | > 100 µM | 98.7 µM | > 100 µM | > 100 µM | > 100 µM | > 100 µM | – | > 100 µM | – | – | – | – | – | – | –
C[C@]12CC[C@H](O)CC1=CC[C@@H]1[C@@H]2CC[C@]2(C)NC(=O)/C(=C\c3ccccc3)C[C@@H]12 | 27.9 µM | 37.8 µM | 29.2 µM | 40.7 µM | 33.2 µM | 34.6 µM | 32 µM | – | – | 69.8 µM | – | – | – | – | – | –
C[C@H]1S[C@H](c2c(F)cccc2F)n2c1nc1ccccc12 | > 100 µM | > 100 µM | – | > 100 µM | > 100 µM | > 100 µM | > 100 µM | – | – | > 100 µM | – | – | – | – | – | –
CC(=O)OCC1=CC2CCC3C(C)(CCC[C@]3(C)COC(C)=O)C23CC[C@H]1C3 (some centres undefined) | 93 µM | > 100 µM | > 100 µM | > 100 µM | > 100 µM | > 100 µM | > 100 µM | 90.2 µM | 53.6 µM | – | – | – | – | – | – | –
COc1ccc(/C=C/c2nc(=S)[nH][nH]2)cc1OC | > 100 µM | > 100 µM | > 100 µM | > 100 µM | > 100 µM | > 100 µM | > 100 µM | > 100 µM | > 100 µM | – | – | – | – | – | – | –
Cn1c(=O)[nH]c2c(c1=O)C(=O)CN2 | > 100 µM | > 100 µM | – | – | > 100 µM | > 100 µM | > 100 µM | – | > 100 µM | – | – | – | – | – | – | –
CCOc1nc2sc3c(c2c(=O)n1CCSSCCn1c(OCC)nc2sc4c(c2c1=O)CCCC4)CCCC3 | – | > 100 µM | > 100 µM | > 100 µM | > 100 µM | > 100 µM | > 100 µM | – | – | > 100 µM | – | – | – | – | – | –
Oc1ccc(/C=N/c2nccs2)c(O)c1 | > 100 µM | > 100 µM | – | > 100 µM | > 100 µM | – | – | – | – | > 100 µM | – | – | – | – | – | –
Clc1ccc(N2N=C(c3cccc(Nc4ccncc4)c3)CC2c2ccc(Br)cc2)cc1 (centres undefined) | 3.02 µM | – | 2.3 µM | – | 3.2 µM | 3.51 µM | – | 2.85 µM | 4.51 µM | – | 1.39 µM | 2.02 µM | 1.62 µM | 1.07 µM | 1.77 µM | 1.73 µM
O=C(NCc1ccccc1)C1C(=O)C(=O)N(Cc2ccccc2)C1=O (centres undefined) | > 100 µM | > 100 µM | > 100 µM | > 100 µM | > 100 µM | > 100 µM | > 100 µM | > 100 µM | > 100 µM | – | – | – | – | – | – | –
CC1OC(CC2C=CCc3c(O)c4c(c(O)c32)C(=O)c2ccccc2C4=O)CC(NC(=O)C(F)(F)F)C1O (centres undefined) | 7.77 µM | 55.9 µM | 16.5 µM | 20.7 µM | 18 µM | 81.5 µM | 16.1 µM | 8.39 µM | 26.7 µM | – | – | – | – | – | – | –
N#CCC(=O)Nc1ccccc1O | > 100 µM | > 100 µM | > 100 µM | > 100 µM | > 100 µM | > 100 µM | > 100 µM | > 100 µM | > 100 µM | – | – | – | – | – | – | –
COC(=O)C(C#N)C1NC(=O)c2ccccc21 (centres undefined) | > 100 µM | > 100 µM | > 100 µM | > 100 µM | > 100 µM | > 100 µM | > 100 µM | > 100 µM | > 100 µM | – | – | – | – | – | – | –
COc1cc2c(cc1OC)[C@H]1C(COC(=O)Nc3ccccc3)CN1CC2 (some centres undefined) | > 100 µM | > 100 µM | > 100 µM | > 100 µM | > 100 µM | > 100 µM | > 100 µM | > 100 µM | > 100 µM | – | – | – | – | – | – | –
CCC(=O)CCC1=Nc2nnc(CCCCc3nnc4n3C(=O)C(CCC(=O)CC)=N4)n2C1=O | > 100 µM | > 100 µM | > 100 µM | > 100 µM | > 100 µM | > 100 µM | > 100 µM | > 100 µM | > 100 µM | – | – | – | – | – | – | –
CC(O)C1OC(n2ccc(=O)[nH]c2=O)CC1n1cncn1 (centres undefined) | > 100 µM | > 100 µM | > 100 µM | > 100 µM | > 100 µM | > 100 µM | > 100 µM | – | > 100 µM | – | – | – | – | – | – | –
CCOC(=O)c1ccc(N(CCOS(=O)(=O)c2ccc(C)cc2)CCOS(=O)(=O)c2ccc(C)cc2)cc1 | > 100 µM | > 100 µM | > 100 µM | > 100 µM | > 100 µM | > 100 µM | – | > 100 µM | – | > 100 µM | – | – | – | – | – | –

Source: PubChem BioAssay (NCI)
